Source: patent US11638709B2, “Rucaparib, Talazoparib, Veliparib, Olaparib and AZD 2461 for treating impaired skin wound healing” (AKRIBES BIOMEDICAL GMBH, priority 2017, dated 2023)
Entries after “also recorded” stand apart in the source; their conditions may differ.

Legend:
[1] = system: primary human dermal fibroblasts (HDF); assay: Primary human dermal fibroblast (HDF) proliferation assay (2D) with or without wound exudate; format: cell-based; details: for fibroblast proliferation in the absence of WE: FIG. 11, 2D fibroblast culture without WE (control); for HDF proliferation in the presence of WE #78, combined with PDGF / HDF proliferation in the presence of WE #78 / HDF proliferation in the absence of WE: FIG. 14; for HDF proliferation in the presence of WE #78, combined with PDGF: plus PDGF 20 ng/ml; for HDF proliferation in the presence of WE #78 / HDF proliferation in the absence of WE: veliparib 10 μM, talazoparib 1 μM, PDGF 20 ng/ml; for HDF proliferation in the absence of WE / effect on PDGF-induced induction of proliferation in the absence of WE: no WE; for HDF proliferation with wound exudate #78, plus PDGF / HDF proliferation with wound exudate #78: FIG. 15; for HDF proliferation with wound exudate #78, plus PDGF: compound + PDGF 20 ng/ml in medium + WE #78; for HDF proliferation with wound exudate #78: compound in medium + WE #78; for wound exudate-induced inhibition of fibroblast proliferation: FIG. 20, with wound exudate; for effect on PDGF-induced induction of proliferation in the absence of WE: with PDGF
Protocol: (§1) Primary human dermal fibroblasts (HDF) were purchased from CELLnTEC, Bern. They were routinely grown in Dulbecco's modified Eagle's medium (DMEM) containing 10% FCS, 2 mM glutamine, and 100 U/ml penicillin/100 μg/ml streptomycin. Media, antibiotics, and glutamine were bought from Lonza. The cells were used at passage 5-15. Cells were trypsinized and seeded at 5000 cells/well in 200 μl into the inner wells of 96-well plates. The outer wells were loaded with sterile water. The cells were allowed to adhere overnight and then incubated for 72 hours at 37° C. under the following conditions: graded compound concentrations or 20 ng/ml PDGF-BB (Tonbo Biosciences) in the absence or presence of different dilutions of sterile-filtered WE in medium. For control samples, 200 μl medium was added instead of specific stimuli. Alternatively, the cells were seeded into 384-well plates at 2500 cells/well directly together with test compounds or growth factors and WE or medium in a total volume of […].
At the end of the 72-hour incubation period, supernatants were removed for the determination of IL-1ß, and the cells were fixed with 4% paraformaldehyde (Morphisto) for 15 minutes at room temperature and washed 3 times with PBS. A control plate was fixed after the overnight adherence of the cells (day 1) to determine the starting cell number.
Total cellular protein was determined as a measure of cell number by staining the fixed cells with sulforhodamine B (SRB, Sigma). A 0.4% SRB solution in 1% acetic acid was added to the wells for 30 minutes. The wells were then washed with 1% acetic acid until the wash solution remained colorless. […] The average absorbance of the sample representing the day 1 starting cell number (for 96-well plates) was subtracted from the absorbance values of the WE-treated cells.
All experiments were carried out in triplicate for each sample and concentration, and means±standard deviation (SD) were used for the evaluation of the experiment. Results are expressed as percentage of control values for unstimulated cells.
Low molecular weight compounds (see list in Table 1) were dissolved in DMSO (Bioreagent for cell culture, Sigma) at 10 mM or 100 mM and diluted at least 1:1000 in medium for cellular assays (final DMSO concentration ≤0.1%).
Cells were incubated with compounds for 72 hours in proliferation assays and up to 8 days for FDM assay (refreshed after 4 days). When compounds were tested for their effect on WE stimulation, the incubation of cells with compounds was started and ended simultaneously with WE-incubation.

[2] = system: alpha-smooth muscle actin (α-SMA) in human dermal fibroblasts; assay: Immunolocalization of alpha-smooth muscle actin in 2D HDF culture; format: cell-based; details: FIG. 16; wound exudates #91 and #55; talazoparib 0.1 μM
Protocol: as §1
After fixation with paraformaldehyde, the cells were incubated for 1 hour at room temperature with a monoclonal mouse-anti-human antibody against alpha-smooth muscle actin (α-SMA) from e-Bioscience, washed 3 times with PBS and developed with an Alexa Fluor-labelled donkey-anti-mouse IgG (Molecular Probes). […]

SMILES	2D fibroblast culture (HDF proliferation), effect of PARP inhibitors ([1]; FIG. 8, WE from patient #78)	2D fibroblast culture (HDF proliferation), effect of PARP inhibitors ([1]; FIG. 9, WE from patient #43)	2D fibroblast culture (HDF proliferation), effect of PARP inhibitors ([1]; FIG. 10, WE from patient #78)	fibroblast proliferation in the absence of WE [1]	2D fibroblast culture, PARP inhibitor effect ± dexamethasone ± Vit. C ([1]; FIG. 12, WE from patient #78)	2D fibroblast culture, PARP inhibitor effect ± dexamethasone ± Vit. C ([1]; FIG. 13, WE from patient #43)	HDF proliferation in the presence of WE #78, combined with PDGF [1]	HDF proliferation in the presence of WE #78 [1]	HDF proliferation in the absence of WE [1]	HDF proliferation with wound exudate #78, plus PDGF [1]	HDF proliferation with wound exudate #78 [1]	wound exudate-induced inhibition of fibroblast proliferation [1]	effect on PDGF-induced induction of proliferation in the absence of WE [1]	expression of α-SMA [2]	WE-induced inhibition of fibroblast proliferation (2D HDF proliferation) ([1]; FIG. 1, wound exudate #78 (diabetic patient))	human dermal fibroblast proliferation (2D), effect of veliparib ([1]; FIG. 2, WE from patients #49, #43, #78, #27)	fibroblast 2D culture, reproducibility of effect ([1]; FIG. 3, WE samples #77 and #78 of one patient (day 1 and day 8), patient on prednisolone)
Cn1ncnc1[C@H]1c2n[nH]c(=O)c3cc(F)cc(c23)N[C@@H]1c1ccc(F)cc1 [Talazoparib]	strong and consistent positive effect	strong and consistent positive effect	strong and consistent positive effect	weak inhibitory activity; also recorded: either no effect on fibroblast proliferation in the absence of wound exudate, or only a marginal effect	strongly beneficial effects	strongly beneficial effects	additively or synergistically enhanced by PDGF	induce proliferation	no or even an inhibitory effect	even further enhanced by the addition of PDGF	dose-dependent increase of HDF proliferation	enhanced cell proliferation	either had no effect on PDGF-induced induction of proliferation or showed inhibition of the PDGF effect	able to induce expression of α-SMA	–	–	–
C[C@]1(c2nc3c(C(N)=O)cccc3[nH]2)CCCN1 [Veliparib, 2-((2R)-2-methylpyrrolidin-2-yl)-1H-benzimidazole-4-carboxamide]	strong and consistent positive effect	strong and consistent positive effect	strong and consistent positive effect	either no effect on fibroblast proliferation in the absence of wound exudate, or only a marginal effect	strongly beneficial effects	strongly beneficial effects	additively or synergistically enhanced by PDGF	induce proliferation	no or even an inhibitory effect	even further enhanced by the addition of PDGF	dose-dependent increase of HDF proliferation	enhanced cell proliferation	either had no effect on PDGF-induced induction of proliferation or showed inhibition of the PDGF effect	–	completely reversed inhibition of wound exudate (WE)-induced fibroblast proliferation	most prominent in the two patients with diabetes	reproducible in different samples of the same patient
